What was measured:
Format in all cases: cell-based
SF-295 = assay: NCI60 screen cytotoxicity; conditions: Homo sapiens, CNS, read-out: Compound B1 EC50
MM1.S = assay: Cell viability, ATPlite 1-step, MM cell lines; conditions: Homo sapiens; MM1.S MM cell line; 48 hours; read-out: Compound EC50
Procedure: Cell Viability. The assay was performed only when cell viability was ≥90%. Cells were seeded in 96-well white clear bottom plates at concentration of 100,000 cells/mL and treated with serially diluted compounds or vehicle (DMSO) control in triplicates for 48 hours (h). Cell viability was determined using the ATPlite 1-step assay system (PerkinElmer). The method was based on the production of light caused by the reaction of ATP, which was a marker for cell viability. […] were added to the plates which were read in a plate reader for luminescence. The emitted light is proportional to the ATP concentration. Viability was calculated as the percent of viable cells from control vehicle-treated cells. EC50 was calculated using Prism software.
Potency of compounds were assessed by viability assay.

769-P = assay: Cell viability panel, ATPlite 1Step; conditions: Homo sapiens, Renal cell carcinoma, 72 h exposure, read-out: Compound EC50
Procedure: (§1) Cell viability panel studies. Cells were diluted in the corresponding ATCC recommended medium and dispensed in a 384-well plate, depending on the cell line used, at a density of 200-6400 cells per well. For each used cell line, the optimal cell density was used. Compound was serially diluted and 8 concentration (0.04-32 μM) were added to the cells for 72 h exposure. At t=end, of ATPlite 1Step™ (PerkinElmer) were used to calculate cell viability. Cell lines marked with asterisk were seeded 24 h prior to treatment in 96-well plates at the density range of 5,000-40,000 cells/well, according to duplication rate, in RPMI 1640 medium containing 10% fetal bovine serum and 2 mM L-glutamine. Compounds were diluted from 10 mM DMSO stock and treatment was applied at the range of 0.04-1 μM. Following incubation at 37° C. for 48 hours with increasing concentrations of the compounds, viability was determined with CyQUANT® Direct Assay Kit (Invitrogen). Output intensities were normalized to values after treatment with DMSO alone, and EC50 values were calculated using the absorbance measurements [time zero, (Tz), growth control, (C), plus the test growth at the four drug concentration levels (Ti)] as follows: [(Ti−Tz)/(C−Tz)]×100 for concentrations for which Ti>/=Tz; [(Ti−Tz)/Tz]×100 for concentrations for which Ti−<Tz.

A-172 = assay: Cell viability panel, ATPlite 1Step; conditions: Homo sapiens, Glioblastoma, 72 h exposure, read-out: Compound EC50
Procedure: as §1

A-204 = assay: Cell viability panel, ATPlite 1Step; conditions: Homo sapiens, A204, Embryonal rhabdomyosarcoma, 72 h exposure, read-out: Compound EC50
Procedure: as §1

A-549 = assay: Cell viability panel, ATPlite 1Step; conditions: Homo sapiens, A549, Lung adenocarcinoma, 72 h exposure, read-out: Compound EC50
Procedure: as §1

AsPC-1 = assay: Cell viability panel, ATPlite 1Step; conditions: Homo sapiens, ASPC1, Pancreatic ductal adenocarcinoma, 72 h exposure, read-out: Compound EC50
Procedure: as §1

BT-20 = assay: Cell viability panel, ATPlite 1Step; conditions: Homo sapiens, Invasive ductal carcinoma, 72 h exposure, read-out: Compound EC50
Procedure: as §1

C-33 A = assay: Cell viability panel, ATPlite 1Step; conditions: Homo sapiens, Cervical squamous cell carcinoma, 72 h exposure, read-out: Compound EC50
Procedure: as §1

CCF-STTG1 = assay: Cell viability panel, ATPlite 1Step; conditions: Homo sapiens, Astrocytoma, 72 h exposure, read-out: Compound EC50
Procedure: as §1

COLO 205 = assay: Cell viability panel, ATPlite 1Step; conditions: Homo sapiens, Colon adenocarcinoma, 72 h exposure, read-out: Compound EC50
Procedure: as §1

DU 145 = assay: Cell viability panel, ATPlite 1Step; conditions: Homo sapiens, Prostate carcinoma, 72 h exposure, read-out: Compound EC50
Procedure: as §1

DU4475 = assay: Cell viability panel, ATPlite 1Step; conditions: Homo sapiens, DU-4475, Breast carcinoma, 72 h exposure, read-out: Compound EC50
Procedure: as §1

DoTc2 4510 = assay: Cell viability panel, ATPlite 1Step; conditions: Homo sapiens, Cervical carcinoma, 72 h exposure, read-out: Compound EC50
Procedure: as §1

Hs 766T = assay: Cell viability panel, ATPlite 1Step; conditions: Hs766T, Pancreatic adenocarcinoma, 72 h exposure, read-out: Compound EC50
Procedure: as §1

KU812 = assay: Cell viability panel, ATPlite 1Step; conditions: Homo sapiens, Chronic myelogenous leukemia, 72 h exposure, read-out: Compound EC50
Procedure: as §1

MIA PaCa-2 = assay: Cell viability panel, ATPlite 1Step; conditions: Homo sapiens, Pancreatic ductal adenocarcinoma, 72 h exposure, read-out: Compound EC50
Procedure: as §1

NCCIT = assay: Cell viability panel, ATPlite 1Step; conditions: Homo sapiens, Testicular embryonal carcinoma, 72 h exposure, read-out: Compound EC50
Procedure: as §1

RD = assay: Cell viability panel, ATPlite 1Step; conditions: Homo sapiens, Embryonal rhabdomyosarcoma, 72 h exposure, read-out: Compound EC50
Procedure: as §1

RT4 = assay: Cell viability panel, ATPlite 1Step; conditions: Homo sapiens, RT-4, Bladder carcinoma, 72 h exposure, read-out: Compound EC50
Procedure: as §1

SU-DHL-6 = assay: Cell viability panel, ATPlite 1Step; conditions: Homo sapiens, Diffuse large B-cell lymphoma, 72 h exposure, read-out: Compound EC50
Procedure: as §1

SW626 = assay: Cell viability panel, ATPlite 1Step; conditions: Homo sapiens, Colon adenocarcinoma, 72 h exposure, read-out: Compound EC50
Procedure: as §1

SW900 = assay: Cell viability panel, ATPlite 1Step; conditions: Homo sapiens, Squamous cell lung carcinoma, 72 h exposure, read-out: Compound EC50
Procedure: as §1

SW948 = assay: Cell viability panel, ATPlite 1Step; conditions: Homo sapiens, Colon adenocarcinoma, 72 h exposure, read-out: Compound EC50
Procedure: as §1

T98G = assay: Cell viability panel, ATPlite 1Step; conditions: Homo sapiens, Glioblastoma, 72 h exposure, read-out: Compound EC50
Procedure: as §1

TT = assay: Cell viability panel, ATPlite 1Step; conditions: Homo sapiens, Hereditary thyroid gland medullary carcinoma, 72 h exposure, read-out: Compound EC50
Procedure: as §1

For `CN(C)CC(=O)NCC(=O)N1C/C(=C\c2ccc(C#N)cc2)C(=O)/C(=C/c2ccc(C#N)cc2)C1` [Compound B1], the EC50 (SF-295) was < 300 nM and the EC50 (MM1.S) was < 300 nM.

In the case of `CN(C)CCCS(=O)(=O)N1C/C(=C\c2ccc(C#N)cc2)C(=O)/C(=C/c2ccc(C#N)cc2)C1` [Compound AA], the EC50 (769-P) is reported as < 300 nM, the EC50 (A-172) is reported as < 300 nM and the EC50 (A-204) is reported as < 300 nM. For the same compound, the EC50 (A-549) was ≥ 1000 nM, the EC50 (AsPC-1) was 300 to 1000 nM and the EC50 (BT-20) was ≥ 1000 nM. For the same compound, the EC50 (C-33 A) was < 300 nM, the EC50 (CCF-STTG1) was < 300 nM and the EC50 (COLO 205) was < 300 nM. The EC50 (DU 145) was 300 to 1000 nM, the EC50 (DU4475) was 300 to 1000 nM and the EC50 (DoTc2 4510) was < 300 nM. The EC50 (Hs 766T) was 300 to 1000 nM, the EC50 (KU812) was < 300 nM and the EC50 (MIA PaCa-2) was 300 to 1000 nM. For the same compound, the EC50 (NCCIT) was < 300 nM, the EC50 (RD) was < 300 nM and the EC50 (RT4) was 300 to 1000 nM. For the same compound, the EC50 (SU-DHL-6) was < 300 nM, the EC50 (SW626) was < 300 nM and the EC50 (SW900) was 300 to 1000 nM. For the same compound, the EC50 (SW948) was < 300 nM, the EC50 (T98G) was 300 to 1000 nM and the EC50 (TT) was 300 to 1000 nM.

Reference: patent publication US20200399262A1, “COMPOUNDS FOR INHIBITING PROTEIN DEGRADATION AND METHODS OF USE THEREOF IN THE TREATMENT OF CANCER” (PI Therapeutics Ltd, priority 2018, published 2020)
